How the values were obtained:
Assay type in all cases: cell-based
HaCat cells [1] = experiment: Propidium iodide (PI) uptake, flow cytometry, HaCat cells; conditions: 10 μM, absence of 10% FBS, FIG. 4A
Description: (§1) FIG. 4: Antp-AAC-11-LZ (363-399) peptide induced necrotic cell death under low serum conditions. (A) SeAx or HaCat cells cultured in the absence of 10% FBS were left untreated or treated with 4 μM or 10 μM, respectively, of the Antp-AAC-11-LZ (363-399) peptide for the indicated durations. Cells were then analyzed by flow cytometry for PI staining. The results represent the mean number of PI-positive cells±S.D. from at least three independent experiments. (B) A549 and HaCat cells were plated at a densities of 4.5×10^3 in 96 well plates (100 μL total volume per well) and allowed to attach overnight in a 37° C. incubator (5% CO2). Media was removed from cells and replaced with media containing 10 μM Antp-AAC-11-LZ (363-399) peptide (100 μL total volume per well) peptide and the plates were incubated for the indicated durations. Lactate dehydrogenase (LDH) activity released in the culture medium was then assessed and data expressed as a percentage of the maximal level (Max) of LDH activity determined after total cell lysis±S.D. from at least three independent experiments.
Cell death was evaluated upon staining with propidium iodide and flow cytometry analysis.
We therefore evaluated necrotic cell death of SeAx cells treated with the Antp-AAC-11-LZ (363-399) peptide by PI uptake assay following different time exposures. […]

HaCat cells [2] = experiment: Lactate dehydrogenase (LDH) release, HaCat cells; conditions: 10 μM, FIG. 4B
Description: as §1, with “Media was removed from cells and replaced with media containing 10 μM Antp-AAC-11-LZ (363-399) peptide (100 μL total volume per well) peptide and the plates were incubated for the indicated durations.” left out
Cytoplasmic lactate dehydrogenase (LDH) release into the cell culture supernatant occurs upon damage of the plasma membrane, and it is therefore considered a typical hallmark of necrosis. […] LDH activity was measured using the CytoTox 96® assay (Promega) by the reduction of lactate to pyruvate in the presence of NAD^+. […] Visible wavelength absorbance data are collected using a standard 96-well plate reader. […]
Necrosis was further assessed based on lactate dehydrogenase (LDH) activity release in the culture medium. […]

D3H2LN cells = experiment: Transwell Boyden chamber migration assay, D3H2LN cells; conditions: 2 μM, toward 10% FBS, 12 h, FIG. 7A
Description: FIG. 7: Antp-AAC-11-LZ (363-399) peptide inhibits cell migration and invasion. (A) D3H2LN cells were added to the upper well of modified Boyden chamber (transwell) plates with a vehicle or with either 2 μM of the Antp-AAC-11-LZ (363-399) peptide or the Antp-only peptide and subjected to a transwell migration assay as described under Materials and methods. The cells were allowed to migrate toward 10% FBS for 12 […]h. Triplicate wells were used for each of three independent experiments. The results are expressed relative to the migration of the untreated cells (=100%). Column: Mean of three experiments. Bar: s.e. P-value was determined by Student's t-test (*P<0.01). (B) D3H2LN cells were seeded in a Matrigel-coated Boyden chamber with a vehicle or with either 2 μM of the Antp-AAC-11-LZ (363-399) peptide or the Antp-only peptide and subjected to a transwell migration assay as described under Materials and methods. The cells were allowed to migrate toward 10% FBS for 24 […]h. Triplicate wells were used for each of three independent experiments. The results are expressed relative to the migration of the untreated cells (=100%). Column: Mean of three experiments. Bar: s.e. P-value was determined by Student's t-test (*P<0.01) […]

Substance: Ac-RQIKIWFKKQNRRMKWKKAKLNAEKLKDFKIRLQYFARGLQVYIRQLRLALQGKT-NH2 [Antp-AAC-11-LZ (363-399)]
- loss of cell membrane integrity (PI uptake) in nonmalignant cells (HaCat cells [1]): much decreased loss of cell membrane integrity
- LDH release in nonmalignant cells (HaCat cells [2]): little LDH release
- cell migration (D3H2LN cells): substantially decreased

From US10358469B2, “Methods and pharmaceutical compositions for the treatment of cancer” (INSERM (INSTITUT NATIONAL DE LA SANTÉ ET DE LA RECHERCHE …, priority 2014, dated 2019)
